In paper PMC9833666, “Designing and identifying β-hairpin peptide macrocycles with antibiotic potential” (Science Advances, 2023):
Where two headings read alike, the source gives them in different places. Bridge positions count the residues as written; N and C are the ends. Ends that are not written are not given here. Peptide text beside a SMILES is read from it.

How the values were obtained:
[1] = system: Single-donor human red blood cells; assay: Hemolysis assay; format: cell-based; conditions: for Fold Change Hemolysis: hemolysis at 128 µg/ml, fold change relative to SySA-5
Experimental: Single-donor human red blood cells (Innovative Research, no. IWB3ALS) were washed in PBS and adjusted to a concentration of 1 × 10^9 cells/ml. Each peptide was added individually to 200 μl of cells at a concentration of either 300 μg/ml (SySA library) or 128 μg/ml (SySA-5 optimization library) in a 96-well polypropylene plate (Corning, 3879). PBS alone and 1% Triton X-100 were used for background normalization and 100% hemolysis, respectively. Each reaction was set up in triplicate. Plates were incubated for 3 hours at 37°C. Following incubation, samples were centrifuged at 800g for 20 min, and 100 μl of supernatant was transferred to a flat-bottom 96-well plate (Genesse, 25-104). Percent hemolysis for each sample was determined by normalizing the absorbance at 540 nm for each sample to the average background and dividing by the average absorbance for 1% Triton X-100 (100% hemolysis). Error bars represent 1 SD of triplicate samples.

[2] = system: Acinetobacter baumannii AB5075; conditions: for AB5075 MIC FBS: 100% fetal bovine serum; for AB5075 MIC MH: Mueller-Hinton
Experimental: MICs were performed by a modifiedClinical and Laboratory Standards Institute) procedure. […] Separately, E. coli W3110 or A. baumannii AB5075 was grown overnight in 5 ml of standard MH at 37°C. Cells from these cultures were diluted to a concentration of 5 × 10^5 to 6 × 10^5 cells/ml in either standard MH, MHII, RPMI, or fetal bovine serum, and 90 μl was added to each well of the 96-well plate containing diluted peptide. Plates were wrapped twice in parafilm and incubated at 37°C for 18 to 24 hours. Wells were examined by eye against wells with no bacteria for signs of growth. MICs were reported as the minimum concentration with no observable growth. In cases where triplicate samples differed, the concentration supported by the median of the three replicates was reported. […]
For consistency, all SynCH peptides were resuspended at 10 mg/ml in water. Peptides were then visually inspected for any lack of solubility (Data File S1). […]
We had this library commercially synthesized and tested its ability to inhibit the growth of Acinetobacter baumannii AB5075, a clinically isolated Carbapenem Resistant Acinetobacter (CRA) pathogen. MICs were performed in MH as well as 100% FBS, which is likely more representative of the in vivo environment. […]

[3] = system: Escherichia coli W3110; format: cell-based

CC(C)C[C@@H]1NC(=O)[C@H](CCCNC(=N)N)NC(=O)[C@H](C(C)C)NC(=O)[C@H](CCCNC(=N)N)NC(=O)[C@H](CC(C)C)NC(=O)[C@@H](N)CSSC[C@@H](C(=O)O)NC(=O)[C@H](C(C)C)NC(=O)[C@H](CCCNC(=N)N)NC(=O)[C@H](CC(C)C)NC(=O)[C@H](CCCNC(=N)N)NC(=O)[C@H](C(C)C)NC(=O)[C@H](CCCCN)NC(=O)[C@H](C(C)C)NC(=O)[C@@H]2CSSC[C@H](NC1=O)C(=O)N[C@@H](CC(N)=O)C(=O)N[C@@H](CCCNC(=N)N)C(=O)N[C@@H](CCCNC(=N)N)C(=O)N[C@@H](CCCNC(=N)N)C(=O)N2 [SySA-5.3] (H-CLRVRLCNRRRCVKVRLRVC-OH; disulfide 1-20, 7-12 (inferred); N-terminus and C-terminus assumed)
Fold Change Hemolysis [1]: 1.8
AB5075 MIC FBS ([2]; replicate 1): 128 µg/mL
AB5075 MIC FBS ([2]; replicate 2): 128 µg/mL
AB5075 MIC FBS ([2]; replicate 3): 128 µg/mL
AB5075 MIC MH ([2]; replicate 1): 8 µg/mL
AB5075 MIC MH ([2]; replicate 2): 8 µg/mL
AB5075 MIC MH ([2]; replicate 3): 8 µg/mL

CC(C)C[C@@H]1NC(=O)[C@H](CCCNC(=N)N)NC(=O)[C@H](C(C)C)NC(=O)[C@H](CCCCN)NC(=O)[C@H](CCCNC(=N)N)NC(=O)[C@H](CCCNC(=N)N)NC(=O)[C@H](CCCNC(=N)N)NC(=O)[C@H](CCCNC(=N)N)NC(=O)[C@H](CCCNC(=N)N)NC(=O)[C@H](CC(C)C)NC(=O)[C@H](CCCNC(=N)N)NC(=O)[C@H](C(C)C)NC(=O)[C@H](CCCNC(=N)N)NC(=O)[C@@H](N)CSSC[C@@H](C(=O)O)NC(=O)[C@H](CCCNC(=N)N)NC1=O [SySA-5.25] (H-CRVRLRRRRRKVRLRC-OH; disulfide 1-16)
Fold Change Hemolysis [1]: 1.5
AB5075 MIC FBS ([2]; median of triplicate): > 128 µg/mL
AB5075 MIC MH ([2]; median of triplicate): 32 µg/mL

CC(C)C[C@@H]1NC(=O)[C@H](CCCNC(=N)N)NC(=O)[C@@H]2CSSC[C@H](NC(=O)[C@H](CCCNC(=N)N)NC(=O)[C@H](C(C)C)NC(=O)[C@H](CCCNC(=N)N)NC(=O)[C@@H](N)CSSC[C@@H](C(=O)O)NC(=O)[C@H](CCCNC(=N)N)NC1=O)C(=O)N[C@@H](CCCNC(=N)N)C(=O)N[C@@H](CCCNC(=N)N)C(=O)N[C@@H](CCCNC(=N)N)C(=O)N[C@@H](CCCNC(=N)N)C(=O)N[C@@H](CCCNC(=N)N)C(=O)N[C@@H](CCCCN)C(=O)N2 [SySA-5.27] (H-CRVRCRRRRRKCRLRC-OH; disulfide 1-16, 5-12 (inferred); N-terminus and C-terminus assumed)
Fold Change Hemolysis [1]: 0.6
AB5075 MIC FBS ([2]; replicate 1): >128 µg/mL
AB5075 MIC FBS ([2]; replicate 2): >128 µg/mL
AB5075 MIC FBS ([2]; replicate 3): >128 µg/mL
AB5075 MIC MH ([2]; replicate 1): 128 µg/mL
AB5075 MIC MH ([2]; replicate 2): 128 µg/mL
AB5075 MIC MH ([2]; replicate 3): 128 µg/mL

CC(C)C[C@@H]1NC(=O)[C@H](CCCNC(=N)N)NC(=O)[C@H](C(C)C)NC(=O)[C@@H]2CSSC[C@H](NC(=O)[C@H](CC(C)C)NC(=O)[C@H](CCCNC(=N)N)NC(=O)[C@H](C(C)C)NC(=O)[C@H](CCCNC(=N)N)NC(=O)[C@@H](N)CSSC[C@@H](C(=O)O)NC(=O)[C@H](CCCNC(=N)N)NC1=O)C(=O)N[C@@H](CCCNC(=N)N)C(=O)N[C@@H](CCCNC(=N)N)C(=O)N[C@@H](CCCNC(=N)N)C(=O)N[C@@H](CCCNC(=N)N)C(=O)N2 [SySA-5.26] (H-CRVRLCRRRRCVRLRC-OH; disulfide 1-16, 6-11 (inferred); N-terminus and C-terminus assumed)
Fold Change Hemolysis [1]: 0.8
AB5075 MIC FBS ([2]; replicate 1): >128 µg/mL
AB5075 MIC FBS ([2]; replicate 2): >128 µg/mL
AB5075 MIC FBS ([2]; replicate 3): >128 µg/mL
AB5075 MIC MH ([2]; replicate 1): 8 µg/mL
AB5075 MIC MH ([2]; replicate 2): 8 µg/mL
AB5075 MIC MH ([2]; replicate 3): 8 µg/mL

CC(C)C[C@@H]1NC(=O)[C@H](CO)NC(=O)[C@H](C(C)C)NC(=O)[C@H](CCCCN)NC(=O)[C@@H]2CSSC[C@H](NC(=O)[C@H](CCCNC(=N)N)NC(=O)[C@H](CC(C)C)NC(=O)[C@H](CCCNC(=N)N)NC(=O)[C@H](C(C)C)NC(=O)[C@H](CCCNC(=N)N)NC(=O)[C@@H](N)CSSC[C@@H](C(=O)O)NC(=O)[C@H](CCCNC(=N)N)NC1=O)C(=O)N[C@@H](CCCNC(=N)N)C(=O)N[C@@H](CCCNC(=N)N)C(=O)NCC(=O)N[C@@H](CCCNC(=N)N)C(=O)N2 [SySA-5.16] (H-CRVRLRCRRGRCKVSLRC-OH; disulfide 1-18, 7-12 (inferred); N-terminus and C-terminus assumed)
Fold Change Hemolysis [1]: 1.3
AB5075 MIC FBS ([2]; replicate 1): >128 µg/mL
AB5075 MIC FBS ([2]; replicate 2): >128 µg/mL
AB5075 MIC FBS ([2]; replicate 3): >128 µg/mL
AB5075 MIC MH ([2]; replicate 1): 32 µg/mL
AB5075 MIC MH ([2]; replicate 2): 64 µg/mL
AB5075 MIC MH ([2]; replicate 3): 32 µg/mL

CC(C)C[C@@H]1NC(=O)[C@H](CCCNC(=N)N)NC(=O)[C@H](C(C)C)NC(=O)[C@H](CCCCN)NC(=O)[C@H](C(C)C)NC(=O)[C@@H]2CSSC[C@H](NC(=O)[C@H](CC(C)C)NC(=O)[C@H](CCCNC(=N)N)NC(=O)[C@H](C(C)C)NC(=O)[C@H](CCCNC(=N)N)NC(=O)[C@@H](N)CSSC[C@@H](C(=O)O)NC(=O)[C@H](CCCNC(=N)N)NC1=O)C(=O)N[C@@H](CCCNC(=N)N)C(=O)N[C@@H](CCCNC(=N)N)C(=O)N[C@@H](CCCNC(=N)N)C(=O)N[C@@H](CCCNC(=N)N)C(=O)N2 [SySA-5.9] (H-CRVRLCRRRRCVKVRLRC-OH; disulfide 1-18, 6-11 (inferred); N-terminus and C-terminus assumed)
Fold Change Hemolysis [1]: 0.6
AB5075 MIC FBS ([2]; replicate 1): >128 µg/mL
AB5075 MIC FBS ([2]; replicate 2): >128 µg/mL
AB5075 MIC FBS ([2]; replicate 3): >128 µg/mL
AB5075 MIC MH ([2]; replicate 1): 8 µg/mL
AB5075 MIC MH ([2]; replicate 2): 8 µg/mL
AB5075 MIC MH ([2]; replicate 3): 8 µg/mL

CC(C)C[C@@H]1NC(=O)[C@H](CO)NC(=O)[C@H](C(C)C)NC(=O)[C@H](CCCCN)NC(=O)[C@@H]2CSSC[C@H](NC(=O)[C@H](CC(N)=O)NC(=O)[C@H](CC(C)C)NC(=O)[C@H](CCCNC(=N)N)NC(=O)[C@H](C(C)C)NC(=O)[C@H](CCCNC(=N)N)NC(=O)[C@@H](N)CSSC[C@@H](C(=O)O)NC(=O)[C@H](CCC(N)=O)NC1=O)C(=O)N[C@@H](CCCNC(=N)N)C(=O)N[C@@H](CCCNC(=N)N)C(=O)NCC(=O)N[C@@H](CCCNC(=N)N)C(=O)N2 [SySA-5.15] (H-CRVRLNCRRGRCKVSLQC-OH; disulfide 1-18, 7-12 (inferred); N-terminus and C-terminus assumed)
Fold Change Hemolysis [1]: 1.3
AB5075 MIC FBS ([2]; replicate 1): >128 µg/mL
AB5075 MIC FBS ([2]; replicate 2): >128 µg/mL
AB5075 MIC FBS ([2]; replicate 3): >128 µg/mL
AB5075 MIC MH ([2]; replicate 1): 16 µg/mL
AB5075 MIC MH ([2]; replicate 2): 16 µg/mL
AB5075 MIC MH ([2]; replicate 3): 16 µg/mL

CC(C)C[C@@H]1NC(=O)[C@H](CCCNC(=N)N)NC(=O)[C@H](C(C)C)NC(=O)[C@H](CCCNC(=N)N)NC(=O)[C@H](C(C)C)NC(=O)[C@@H](N)CSSC[C@@H](C(=O)O)NC(=O)[C@H](C(C)C)NC(=O)[C@H](CCC(N)=O)NC(=O)[C@H](C(C)C)NC(=O)[C@H](CO)NC(=O)[C@H](C(C)C)NC(=O)[C@H](CCCNC(=N)N)NC(=O)[C@H](C(C)C)NC(=O)[C@H](CCCNC(=N)N)NC(=O)[C@H](CCCNC(=N)N)NC(=O)[C@H](CCCNC(=N)N)NC(=O)[C@H](CCCNC(=N)N)NC(=O)[C@H](CC(N)=O)NC(=O)[C@H](CC(N)=O)NC1=O [SyPA-10] (H-CVRVRLNNRRRRVRVSVQVC-OH; disulfide 1-20)
%Hemo ([1]; SyPA peptides, human red blood cells, 3 h 37°C, relative to 1% Triton X-100, peptide concentration not stated for SyPA, n=3): 1.99%
W3110 MIC ([3]; SyPA peptides, MH, replicate 2): 16 µg/mL
W3110 MIC ([3]; SyPA peptides, MH, replicate 3): 16 µg/mL

CC[C@H](C)[C@@H]1NC(=O)[C@H](CCCNC(=N)N)NC(=O)[C@H](CC(C)C)NC(=O)CNC(=O)[C@H](CO)NC(=O)[C@H](CCCNC(=N)N)NC(=O)[C@H](CCCNC(=N)N)NC(=O)[C@H](CC(N)=O)NC(=O)[C@H](CC(=O)O)NC(=O)[C@H](CC(C)C)NC(=O)[C@H](CCCNC(=N)N)NC(=O)[C@H](C(C)C)NC(=O)[C@H](CCCNC(=N)N)NC(=O)[C@H](C(C)C)NC(=O)[C@@H](N)CSSC[C@@H](C(=O)O)NC(=O)[C@H](C(C)C)NC(=O)[C@H](CCC(N)=O)NC(=O)[C@H](CC(C)C)NC(=O)[C@H](CO)NC1=O [SyPA-3] (H-CVRVRLDNRRSGLRISLQVC-OH; disulfide 1-20)
%Hemo [1]: 0.39%
W3110 MIC ([3]; W3110): >128 µg/mL

CRIKIDVDNRRRTLKLQLEC (disulfide 1-20 (inferred)) [SySA-74]
hemolysis [1]: 0.72%
Ec W3110 MIC MH ([3]; E. coli W3110, MH medium): > 256 µg/mL
Ec W3110 MIC RPMI ([3]; E. coli W3110, RPMI medium): > 256 µg/mL
